Columns and labels:
[1] = test system: Human immunodeficiency virus 1; assay: Antiviral activity against HIV1 in HEK293T cells; type: functional, organism-based; details: Human immunodeficiency virus 1, HEK-293T
HEK293 = assay: Cytotoxicity against HEK293T cells; type: functional; details: Homo sapiens
[2] = test system: Human immunodeficiency virus 1; assay: Antiviral activity against HIV1 F227C mutant; type: functional, organism-based
[3] = test system: Human immunodeficiency virus 1; assay: Antiviral activity against HIV1 K103N mutant; type: functional, organism-based
[4] = test system: Human immunodeficiency virus 1; assay: Antiviral activity against HIV1 I135V mutant; type: functional, organism-based
[5] = test system: Human immunodeficiency virus 1; assay: Antiviral activity against HIV1 Y181C mutant; type: functional, organism-based
[6] = test system: Human immunodeficiency virus 1; assay: Antiviral activity against HIV1 V106A mutant; type: functional, organism-based
[7] = test system: Human immunodeficiency virus 1; assay: Antiviral activity against HIV1 Y188L mutant; type: functional, organism-based
[8] = test system: Human immunodeficiency virus 1; assay: Antiviral activity against HIV1 F227L mutant; type: functional, organism-based
[9] = test system: Human immunodeficiency virus 1; assay: Antiviral activity against HIV1 E138K mutant; type: functional, organism-based
[10] = test system: Human immunodeficiency virus 1; assay: Antiviral activity against HIV1 V179E mutant; type: functional, organism-based
[11] = test system: Human immunodeficiency virus 1; assay: Antiviral activity against HIV1 L100I mutant; type: functional, organism-based
[12] = test system: Human immunodeficiency virus 1; assay: Antiviral activity against HIV1 I135T mutant; type: functional, organism-based
Rattus norvegicus [13] = assay: AUC in […] rat at 50 mg/kg, po normalized to 1 mg/kg; type: ADME, organism-based, Plasma; details: in vivo
Rattus norvegicus [14] = assay: Cmax in […] rat at 50 mg/kg, po normalized to 1 mg/kg; type: ADME, organism-based; parameters: dose 50 mg/kg, route oral; details: in vivo
[15] = Oral bioavailability in […] rat at 50 mg/kg, po; type: ADME, organism-based; details: in vivo

For O=C1Nc2ccc(Cl)cc2[C@@]12C[C@@H]2c1ccncc1, the EC50 [1] was > 10000 nM and the CC50 (HEK293) was > 10000 nM.

With O=C1Nc2ccc(Cl)cc2[C@@]12C[C@@H]2c1cccn1S(=O)(=O)c1ccccc1 the EC50 [1] was 6770 nM and the CC50 (HEK293) was > 10000 nM.

In the case of O=C1Nc2ccc(Cl)cc2[C@@]12C[C@@H]2c1ccccc1, the EC50 [1] is reported as 244 nM and the CC50 (HEK293) is reported as > 10000 nM.

Compound C=Cc1cccc([C@H]2C[C@]23C(=O)Nc2ccc(Cl)cc23)n1 has an EC50 [2] of 578 nM, an EC50 [3] of 11100 nM and an EC50 [1] of 5 nM. For the same compound, the CC50 (HEK293) was > 10000 nM, the EC50 [4] was < 3 nM and the EC50 [5] was 85 nM. For the same compound, the EC50 [6] was 149 nM, the EC50 [7] was 22600 nM and the EC50 [8] was 88 nM. For the same compound, the EC50 [9] was 20 nM, the EC50 [10] was 88 nM and the EC50 [11] was 178 nM. It also gave an EC50 [12] of 16 nM.

For CSc1nc([C@H]2C[C@]23C(=O)Nc2ccc(Cl)cc23)ccc1C#N, the EC50 [1] was 436 nM and the CC50 (HEK293) was > 10000 nM.

In the case of O=C1Nc2ccc(Cl)cc2[C@@]12C[C@@H]2c1ccc2c(O)cccc2n1, the EC50 [1] is reported as 587 nM and the CC50 (HEK293) is reported as > 10000 nM.

For O=C1Nc2ccc(Cl)cc2[C@@]12C[C@@H]2c1ccc2ccccc2n1, the EC50 [1] was 10 nM and the CC50 (HEK293) was > 10000 nM.

With C=Cc1cccc([C@H]2C(C)(C)[C@]23C(=O)Nc2ccc(Cl)cc23)n1 the EC50 [2] was 87 nM, the EC50 [3] was 696 nM and the EC50 [1] was 8 nM. The CC50 (HEK293) was > 10000 nM, the EC50 [4] was 29 nM and the EC50 [5] was 120 nM. For the same compound, the EC50 [6] was 41 nM, the EC50 [7] was 1070 nM and the EC50 [8] was 14 nM. It also gave an EC50 [9] of 26 nM, an EC50 [10] of 10 nM and an EC50 [11] of 228 nM. The EC50 [12] was 37 nM.

With Cn1nnc([C@H]2C[C@]23C(=O)Nc2ccc(Cl)cc23)n1 the EC50 [1] was 55 nM and the CC50 (HEK293) was > 10000 nM.

With Cc1ccc([C@H]2C[C@]23C(=O)Nc2ccc(Cl)cc23)o1 the EC50 [1] was 73 nM and the CC50 (HEK293) was > 10000 nM.

With O=C1Nc2ccc(Cl)cc2[C@@]12C[C@@H]2c1ccccn1 the EC50 [2] was 528 nM, the EC50 [3] was > 10000 nM and the EC50 [1] was 8 nM. The CC50 (HEK293) was > 10000 nM, the AUC (Rattus norvegicus [13]) was 5.43 µg·min/mL and the EC50 [4] was 26 nM. For the same compound, the EC50 [5] was 3230 nM, the EC50 [6] was 259 nM and the EC50 [7] was > 10000 nM. The EC50 [8] was 13 nM, the EC50 [9] was 45 nM and the Cmax (Rattus norvegicus [14]) was 68.4 nM. The EC50 [10] was 898 nM, the EC50 [11] was 174 nM and the EC50 [12] was 127 nM. For the same compound, the bioavailability [15] was 46%.

With O=C1Nc2ccc(Cl)cc2[C@@]12C[C@@H]2c1ccco1 the EC50 [1] was 200 nM and the CC50 (HEK293) was > 10000 nM.

O=C1Nc2ccc(Cl)cc2[C@@]12C[C@@H]2c1ccsc1 showed an EC50 [2] of 142 nM, an EC50 [3] of 100 nM and an EC50 [1] of 6 nM. The CC50 (HEK293) was 1670 nM, the EC50 [4] was 17 nM and the EC50 [5] was 31 nM. For the same compound, the EC50 [6] was 513 nM, the EC50 [7] was 1250 nM and the EC50 [8] was 2 nM. The EC50 [9] was 30 nM, the EC50 [10] was 324 nM and the EC50 [11] was 8 nM. For the same compound, the EC50 [12] was 48 nM.

For CCc1ccc([C@H]2C[C@]23C(=O)Nc2ccc(Cl)cc23)o1, the EC50 [1] was 216 nM and the CC50 (HEK293) was > 10000 nM.

For O=C1Nc2ccc(Cl)cc2[C@@]12C[C@@H]2c1cccc(-c2ccccc2)n1, the EC50 [1] was 138 nM and the CC50 (HEK293) was > 10000 nM.

With O=C1Nc2ccc(Cl)cc2[C@@]12C[C@@H]2c1cc(Br)cs1 the EC50 [1] was 1270 nM and the CC50 (HEK293) was > 10000 nM.

For O=C1Nc2ccc(Cl)cc2[C@@]12C[C@@H]2c1cccc(Br)n1, the EC50 [2] was 145 nM, the EC50 [3] was 1930 nM and the EC50 [1] was 23 nM. The CC50 (HEK293) was > 10000 nM, the EC50 [4] was 14 nM and the EC50 [5] was 134 nM. It also gave an EC50 [6] of 166 nM, an EC50 [7] of 6520 nM and an EC50 [8] of 48 nM. For the same compound, the EC50 [9] was 32 nM, the EC50 [10] was 48 nM and the EC50 [11] was 277 nM. It also gave an EC50 [12] of 46 nM.

With O=C1Nc2ccc(Cl)cc2[C@@]12C[C@@H]2c1cc([N+](=O)[O-])cs1 the EC50 [1] was > 10000 nM and the CC50 (HEK293) was > 10000 nM.

CC1(C)[C@H](c2ccc3ccccc3n2)[C@@]12C(=O)Nc1ccc(Cl)cc12 gave an EC50 [2] of 2080 nM, an EC50 [3] of 2350 nM and an EC50 [1] of 10 nM. For the same compound, the CC50 (HEK293) was > 10000 nM, the EC50 [4] was 47 nM and the EC50 [5] was 717 nM. For the same compound, the EC50 [6] was 102 nM, the EC50 [7] was > 10000 nM and the EC50 [8] was 381 nM. It also gave an EC50 [9] of 71 nM, an EC50 [10] of 483 nM and an EC50 [11] of 58 nM. For the same compound, the EC50 [12] was 55 nM.

In the case of CCOC(=O)[C@H]1C(C)(C)[C@]12C(=O)Nc1ccc(Br)cc12, the CC50 (HEK293) is reported as > 10000 nM, the AUC (Rattus norvegicus [13]) is reported as 0.9 µg·min/mL and the Cmax (Rattus norvegicus [14]) is reported as 17.9 nM. For the same compound, the bioavailability [15] was 27%.

With O=C1Nc2ccc(Cl)cc2[C@@]12C[C@@H]2c1cccc[n+]1[O-] the EC50 [1] was > 10000 nM and the CC50 (HEK293) was > 10000 nM.

In the case of CC#Cc1cccc([C@H]2C[C@]23C(=O)Nc2ccc(Cl)cc23)n1, the EC50 [1] is reported as 648 nM and the CC50 (HEK293) is reported as > 10000 nM.

In the case of O=C1Nc2ccc(Cl)cc2[C@@]12C[C@@H]2c1ccccc1Br, the EC50 [1] is reported as > 10000 nM and the CC50 (HEK293) is reported as > 10000 nM.

For O=C1Nc2ccc(Cl)cc2[C@@]12C[C@@H]2c1cccc(-c2ccco2)n1, the EC50 [2] was 658 nM, the EC50 [3] was 14300 nM and the EC50 [1] was 18 nM. The CC50 (HEK293) was 7950 nM, the EC50 [4] was 55 nM and the EC50 [5] was 265 nM. For the same compound, the EC50 [6] was 2520 nM, the EC50 [7] was 23100 nM and the EC50 [8] was 2350 nM. For the same compound, the EC50 [9] was 28 nM, the EC50 [10] was 101 nM and the EC50 [11] was 2090 nM. It also gave an EC50 [12] of 76 nM.

In the case of O=C1Nc2ccc(Cl)cc2[C@@]12C[C@@H]2c1ccc(-c2cccc(C(F)(F)F)c2)o1, the EC50 [1] is reported as 5550 nM and the CC50 (HEK293) is reported as > 10000 nM.

In the case of O=C1Nc2ccc(Cl)cc2[C@@]12C[C@@H]2c1nn[nH]n1, the EC50 [1] is reported as > 10000 nM and the CC50 (HEK293) is reported as 7610 nM.

Source: ChEMBL document CHEMBL1146939, “Design, synthesis, and biological evaluations of novel oxindoles as HIV-1 non-nucleoside reverse transcriptase inhibitors. Part 2” (Bioorg Med Chem Lett, 2006)
